Source: patent US8889591B2, “Herbicidal compositions comprising 4-amino-3-chloro-5-fluoro-6-(4-chloro-2-fluoro-3-methoxyphenyl)pyridine-2-carboxylic acid or a derivative thereof and bromobutide, daimuron, oxaziclomefone or pyributicarb” (Dow Agrosciences LLC, priority 2012, dated 2014)

What was measured:
ECHCG = test: In-water applied greenhouse weed control, transplanted paddy rice system; type: in vivo, Echinochloa crusgalli (L.) Beauv.; details: in-water application
Procedure: Weed seeds or nutlets of the desired test plant species were planted in puddled soil (mud) prepared by mixing a shredded, non-sterilized mineral soil (50.5 percent silt, 25.5 percent clay, and 24 percent sand, with a pH of about 7.6 and an organic matter content of about 2.9 percent) and water at a 1:1 volumetric ratio. The prepared mud was dispensed in 365 mL aliquots into 16-ounce (oz.) non-perforated plastic pots with a surface area of 86.59 square centimeters (cm^2) leaving a headspace of 3 centimeters (cm) in each pot. Mud was allowed to dry overnight prior to planting or transplanting. Rice seeds were planted in Sun Gro MetroMix® 306 planting mixture, which typically has a pH of 6.0 to 6.8 and an organic matter content of about 30 percent, in plastic plug trays. Seedlings at the second or third leaf stage of growth were transplanted into 840 mL of mud contained in 32-oz. non-perforated plastic pots with a surface area of 86.59 cm^2 4 days prior to herbicide application. The paddy was created by filling the headspace of the pots with 2.5 to 3 cm of water. […]
Treatment requirements for each compound or herbicidal component were calculated based upon the rates being tested, the concentration of active ingredient or acid equivalent in the formulation, an application volume of 2 mL per component per pot, and an application area of 86.59 cm^2 per pot.
For formulated compounds, a measured amount was placed in an individual 100 or 200 mL glass vial and was dissolved in a volume of 1.25% (v/v) Agri-Dex® crop oil concentrate to obtain application solutions. […]
The treated plants and control plants were placed in a greenhouse as described above and water was added as needed to maintain a paddy flood. After approximately 3 weeks the condition of the test plants as compared with that of the untreated plants was determined visually and scored on a scale of 0 to 100 percent where 0 corresponds to no injury or growth inhibition and 100 corresponds to complete kill. […]

LEFCH = test: Postemergence foliar-applied greenhouse weed control, direct-seeded rice system; type: in vivo, Leptochloa chinensis (L.) Nees
From the text: Seeds or nutlets of the desired test plant species were planted in a soil matrix prepared by mixing a loam or sandy loam soil (e.g., 28.6 percent silt, 18.8 percent clay, and 52.6 percent sand, with a pH of about 5.8 and an organic matter content of about 1.8 percent) and calcareous grit in an 80 to 20 ratio. The soil matrix was contained in plastic pots with a volume of 1 quart and a surface area of 83.6 square centimeters (cm^2). When required to ensure good germination and healthy plants, a fungicide treatment and/or other chemical or physical treatment was applied. The plants were grown for 8-22 days in a greenhouse with an approximate 14 h photoperiod which was maintained at about 29° C. during the day and 26° C. during the night. Nutrients (Peters Excel® 15-5-15 5-Ca 2-Mg and iron chelate) were applied in the irrigation solution as needed and water was added on a regular basis. Supplemental lighting was provided with overhead metal halide 1000-Watt lamps as necessary. The plants were employed for testing when they reached the first through fourth true leaf stage.
Treatments consisted of the acid or esters of 4-amino-3-chloro-5-fluoro-6-(4-chloro-2-fluoro-3-methoxy-phenyl)pyridine-2-carboxylic acid (Compound A), each formulated as an SC (suspension concentrate), and various herbicidal components alone and in combination. Forms of compound A were applied on an acid equivalent basis.
Other herbicidal components were applied on an active ingredient basis and included diamuron formulated as an EC (emulsifiable concentrate) and oxaziclomefone (technical grade material).
Treatment requirements were calculated based upon the rates being tested, the concentration of active ingredient or acid equivalent in the formulation, and a 12 mL application volume at a rate of 187 L/ha.
For treatments comprised of formulated compounds, measured amounts of compounds were placed individually in 25 mL glass vials and diluted in a volume of 1.25% (v/v) Agri-Dex® crop oil concentrated to obtain 12× stock solutions. […] Application solutions were prepared by adding an appropriate amount of each stock solution (e.g., 1 mL) and diluted to the appropriate final concentrations with the addition of 10 mL of an aqueous mixture of 1.25% (v/v) crop oil concentrate so that the final spray solutions contained 1.25+/−0.05% (v/v) crop oil concentrate.
For treatments comprised of technical compounds, weighed amounts can be placed individually in 25 mL glass vials and dissolved in a volume of 97:3 v/v acetone/DMSO to obtain 12× stock solutions. […] Application solutions can be prepared by adding an appropriate amount of each stock solution (e.g., 1 mL) and diluted to the appropriate final concentrations with the addition of 10 mL of an aqueous mixture of 1.5% (v/v) crop oil concentrate so that the final spray solutions contain 1.25% (v/v) crop oil concentrate. When technical materials are used, the concentrated stock solutions can be added to the spray solutions so that the final acetone and DMSO concentrations of the application solutions are 16.2% and 0.5%, respectively.
For treatments comprised of formulated and technical compounds, weighed amounts of the technical materials were placed individually in 25 mL glass vials and dissolved in a volume of 97:3 v/v acetone/DMSO to obtain 12× stock solutions, and measured amounts of the formulated compounds were placed individually in 25 mL glass vials and diluted in a volume of 1.5% (v/v) crop oil concentrate or water to obtain 12× stock solutions. […] Application solutions were prepared by adding an appropriate amount of each stock solution (e.g., 1 mL) and diluted to the appropriate final concentrations with the addition of an appropriate amount of an aqueous mixture of 1.5% (v/v) crop oil concentrate so that the final spray solutions contained 1.25% (v/v) crop oil concentrate. […]

[1] = Compound A Benzyl Ester 4.38 gae/ha alone
[2] = Compound A Benzyl Ester 8.75 gae/ha alone

Structure (SMILES): COc1c(Cl)ccc(-c2nc(C(=O)OCc3ccccc3)c(Cl)c(N)c2F)c1F [Compound A Benzyl Ester]
- Visual Weed Control (%) - 21 DAA ECHCG Obs (ECHCG; [1]): 40%
- Visual Weed Control (%) - 21 DAA ECHCG Obs (ECHCG; [2]): 50%
- Visual Weed Control (%) - 20 DAA LEFCH Obs (LEFCH; [1]): 10%
- Visual Weed Control (%) - 20 DAA LEFCH Obs (LEFCH; [2]): 20%
- Visual Weed Control (%) - 20 DAA LEFCH Obs (LEFCH; Compound A Benzyl Ester 17.5 gae/ha alone): 50%
